Measured values from patent US7816522B2, “Triazolone derivatives” (Eisai Co., Ltd., priority 2006, dated 2010).

Molecular target: T1, human clotting factor VIIa (Homo sapiens, UniProt P08709)
T1 construct: a human clotting factor VIIa (hereinafter, “Factor VIIa”) purified sample; purchased Enzyme Research Laboratories HFVIIa
Experiment: Inhibitory activity against clotting factor VIIa (chromogenic substrate Spectrozyme FVIIa, TF/Factor VIIa enzyme solution)
Type: biochemical
Details: human Factor VIIa 5 nmol/L with human TF 10 nmol/L, room temperature 40 minutes, 405 nm
Procedure, shortened: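 Human Factor VIIa (5 nmol/L) with human TF (10 nmol/L) in Tris-BSA buffer pH 7.4 containing 15 mmol/L CaCl2 and cephalin, with Spectrozyme FVIIa substrate. Reaction 40 min at room temperature; 4-nitroanilide read at 405 nm. IC50 by non-linear regression over 100 μmol/L–0.1 nmol/L.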

T1 sequence (P08709 213-466 limits assumed): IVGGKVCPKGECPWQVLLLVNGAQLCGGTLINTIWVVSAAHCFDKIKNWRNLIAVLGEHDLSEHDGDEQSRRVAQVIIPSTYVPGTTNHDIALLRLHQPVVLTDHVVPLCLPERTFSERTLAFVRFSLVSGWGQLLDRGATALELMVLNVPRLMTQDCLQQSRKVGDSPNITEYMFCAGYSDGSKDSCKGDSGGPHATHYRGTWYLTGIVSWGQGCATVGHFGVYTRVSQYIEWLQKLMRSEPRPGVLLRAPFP
T1 sequence (P08709 61-212 limits assumed): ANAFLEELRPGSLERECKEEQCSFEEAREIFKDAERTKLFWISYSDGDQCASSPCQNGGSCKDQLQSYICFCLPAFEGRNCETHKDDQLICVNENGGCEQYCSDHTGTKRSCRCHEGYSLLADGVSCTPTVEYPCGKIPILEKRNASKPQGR
T1 sequence (P13726 33-295 partner): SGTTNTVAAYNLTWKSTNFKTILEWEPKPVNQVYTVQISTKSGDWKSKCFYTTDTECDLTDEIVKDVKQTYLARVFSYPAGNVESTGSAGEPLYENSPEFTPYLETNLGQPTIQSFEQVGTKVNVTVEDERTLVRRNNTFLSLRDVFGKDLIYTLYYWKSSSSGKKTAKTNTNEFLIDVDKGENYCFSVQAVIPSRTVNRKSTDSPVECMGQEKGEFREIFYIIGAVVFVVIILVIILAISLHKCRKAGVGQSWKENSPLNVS

IC50 | Compound
8.9 nM | COc1cc(OCF)cc(C(Nc2ccc(C(=N)N)cc2)c2nn(-c3ncccn3)c(=O)[nH]2)c1 (racemic) [Example 104, 4-{[(R) and (S)-(3-fluoromethoxy-5-methoxyphenyl)-(5-oxo-1-pyrimidin-2-yl-4,5-dihydro-1H-[1,2,4]triazol-3-yl)methyl]amino}benzamidine acetate]
8 nM | COC(=O)c1ccccc1-n1nc(C(Nc2ccc(C(=N)N)cc2)c2cc(OC)c(OC)cc2F)[nH]c1=O (racemic) [Example 108, (R) and (S)-2-{3-[(4-carbamimidoylphenylamino)-(2-fluoro-4,5-dimethoxyphenyl)methyl]-5-oxo-4,5-dihydro-[1,2,4]triazol-1-yl}benzoic acid methyl ester acetate]
7.9 nM | COc1cc(F)c(C(Nc2ccc(C(=N)N)cc2)c2nn(-c3ccccc3C(N)=O)c(=O)[nH]2)cc1OC (racemic) [Example 109, (R) and (S)-2-{3-[(4-carbamimidoylphenylamino)-(2-fluoro-4,5-dimethoxyphenyl)methyl]-5-oxo-4,5-dihydro-1H-[1,2,4]triazol-1-yl}benzamide acetate]
6.6 nM | COc1ccc(C(Nc2ccc(C(=N)N)cc2)c2nn(-c3ccccc3C(N)=O)c(=O)[nH]2)cc1OC (racemic) [Example 110, (R) and (S)-2-{3-[(4-carbamimidoylphenylamino)-(3,4-dimethoxyphenyl)methyl]-5-oxo-4,5-dihydro-1H-[1,2,4]triazol-1-yl}benzamide acetate]
11.3 nM | COc1cc(F)c(C(Nc2ccc(C(=N)N)cc2)c2nn(-c3ncccn3)c(=O)[nH]2)cc1OC (racemic) [Example 111, 4-{[(R) and (S)-(2-fluoro-4,5-dimethoxyphenyl)-(5-oxo-1-pyrimidin-2-yl-4,5-dihydro-1H-[1,2,4]triazol-3-yl)methyl]amino}benzamidine acetate]
11.5 nM | CCOc1cc(C(Nc2ccc(C(=N)N)cc2)c2nn(-c3ncccn3)c(=O)[nH]2)c(F)cc1OC (racemic) [Example 115, (R) and (S)-4-{[(5-ethoxy-2-fluoro-4-methoxyphenyl)-(5-oxo-1-pyrimidin-2-yl-4,5-dihydro-1H-[1,2,4]triazol-3-yl)methyl]amino}benzamidine acetate]
11.9 nM | COc1cc(C(Nc2ccc(C(=N)N)cc2)c2nn(-c3ncccn3)c(=O)[nH]2)cc(F)c1OC (racemic) [Example 116, (R) and (S)-4-{[(3-fluoro-4,5-dimethoxyphenyl)-(5-oxo-1-pyrimidin-2-yl-4,5-dihydro-1H-[1,2,4]triazol-3-yl)methyl]amino}benzamidine acetate]
22.4 nM | COc1ccc(C(Nc2ccc(C(=N)N)cc2)c2nn(-c3ncccn3)c(=O)[nH]2)cc1OCCF (racemic) [Example 117, (R) and (S)-4-({[3-(2-fluoroethoxy)-4-methoxyphenyl]-(5-oxo-1-pyrimidin-2-yl-4,5-dihydro-1H-[1,2,4]triazol-3-yl)methyl}amino)benzamidine acetate]
7.3 nM | C=CCOc1cc(C(Nc2ccc(C(=N)N)cc2)c2nn(-c3ncccn3)c(=O)[nH]2)ccc1OC (racemic) [Example 118, (R) and (S)-4-{[(3-allyloxy-4-methoxyphenyl)-(5-oxo-1-pyrimidin-2-yl-4,5-dihydro-1H-[1,2,4]triazol-3-yl)methyl]amino}benzamidine acetate]
7 nM | COc1cc(F)c(C(Nc2ccc(C(=N)N)cc2)c2nn(-c3cccnn3)c(=O)[nH]2)cc1OC (racemic) [Example 119, (R) and (S)-4-{[(2-fluoro-4,5-dimethoxyphenyl)-(5-oxo-1-pyridazin-3-yl-4,5-dihydro-1H-[1,2,4]triazol-3-yl)methyl]amino}benzamidine acetate]
6.8 nM | CCOc1cc(C(Nc2ccc(C(=N)N)cc2)c2nn(-c3cccnn3)c(=O)[nH]2)ccc1OC (racemic) [Example 121, (R) and (S)-4-{[(3-ethoxy-4-methoxyphenyl)-(5-oxo-1-pyridazin-3-yl-4,5-dihydro-1H-[1,2,4]triazol-3-yl)methyl]amino}benzamidine acetate]
